Source: patent US20070161560A1, “Use of vanilloid 4 receptor and antagonists or agonists thereof for treating diseases associated with pain” (SmithKline Beecham plc, priority 2000, published 2007)

Assays:
Format in all cases: cell-based
[1] = test system: VR4 endogenously expressed by chondrocytes; test: FLIPR cytoplasmic calcium (Fluo-3), bovine articular chondrocytes; settings: channel blocker against the 4α-PDD response
Method: (§1) The VR4 cDNA was inserted into the expression vector pcDNA3.1 V5-His (Invitrogen). Wildtype HEK293 cells, or HEK293 cells transfected with the human VR4:pcDNA3.1 V5-His construct, or mock transfected cells, or bovine chondrocytes, were seeded into 96-well microtitre plates at 25,000 cells/well and cultured overnight. The cells were then incubated with 4 microM Fluo-3 for 2 hrs at room temperature in the dark. Dye loaded cells were washed 4× with Tyrodes buffer: (NaCl, 145 mM; KCl, 2.5 mM; Hepes, 10 mM; Glucose, 10 mM; MgC12, 1.2 mM; CaCl2, 1.5 mM), which also contained 0.2% BSA but not probenecid. Agonists and antagonists were also prepared in Tyrodes buffer. Cells were preincubated for 30 mins with antagonist or buffer. Agonist addition and measurement of cytoplasmic calcium concentration was performed in the FLIPR (Smart et al., (2000) Br. J. Pharmacol. 129, 227-230).
The response was dependent upon extracellular calcium ions and was blocked by the channel blocker ruthenium red.

human VR1 = human VR1 (Homo sapiens, UniProt Q8NER1); settings: for activity at VR1: result in words; for pEC50 hVR1: increase of intracellular calcium, human VR1, mean ± s.e. mean, n = 3-5, IA = inactive
Chain of human VR1 (Q8NER1 whole entry): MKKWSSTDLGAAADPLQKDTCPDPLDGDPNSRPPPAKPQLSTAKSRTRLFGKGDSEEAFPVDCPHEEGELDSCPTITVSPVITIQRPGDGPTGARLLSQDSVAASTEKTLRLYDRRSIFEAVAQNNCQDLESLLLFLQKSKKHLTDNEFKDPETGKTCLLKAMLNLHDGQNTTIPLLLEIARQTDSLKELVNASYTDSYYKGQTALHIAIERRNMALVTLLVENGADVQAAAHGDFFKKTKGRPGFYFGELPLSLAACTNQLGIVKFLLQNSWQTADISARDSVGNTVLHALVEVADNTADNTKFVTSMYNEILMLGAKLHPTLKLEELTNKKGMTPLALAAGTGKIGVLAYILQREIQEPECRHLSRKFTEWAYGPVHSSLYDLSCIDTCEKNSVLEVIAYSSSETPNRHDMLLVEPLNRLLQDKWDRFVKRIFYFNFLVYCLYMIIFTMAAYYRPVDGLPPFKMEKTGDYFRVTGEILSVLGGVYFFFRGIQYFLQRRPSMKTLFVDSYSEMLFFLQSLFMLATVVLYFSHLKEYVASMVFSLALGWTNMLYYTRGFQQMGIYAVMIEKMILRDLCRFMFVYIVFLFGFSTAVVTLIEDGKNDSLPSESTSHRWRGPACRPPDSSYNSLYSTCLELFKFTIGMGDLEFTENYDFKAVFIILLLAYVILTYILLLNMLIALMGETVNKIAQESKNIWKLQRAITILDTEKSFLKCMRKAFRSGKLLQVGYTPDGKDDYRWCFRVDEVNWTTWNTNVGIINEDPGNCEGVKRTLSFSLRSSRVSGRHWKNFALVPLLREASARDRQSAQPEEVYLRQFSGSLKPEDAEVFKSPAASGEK

wild type HEK293 cells = test: FLIPR cytoplasmic calcium (Fluo-3), wild type HEK293 cells; settings: result in words
Method: as §1

[2] = test system: HEK293 cells transfected with empty vector; test: FLIPR cytoplasmic calcium (Fluo-3), HEK293 cells transfected with empty vector; settings: result in words
Method: as §1

human VR4 = molecular target: T1, human VR4 (Homo sapiens, UniProt Q9HBA0); test: FLIPR cytoplasmic calcium (Fluo-3), HEK293 cells transfected with human VR4; settings: for effect on intracellular calcium in HEK293-VR4 cells: result in words; for pEC50 hVR4: increase of intracellular calcium, mean ± s.e. mean, n = 3-5, IA = inactive; for effect on intracellular calcium in HEK293-VR4 cells / pEC50 hVR4: HEK293-VR4 cells
T1 construct: V5-His (vector-encoded); expressed in transfected cells; host or cells: HEK293
T1 sequence (Q9HBA0 whole entry): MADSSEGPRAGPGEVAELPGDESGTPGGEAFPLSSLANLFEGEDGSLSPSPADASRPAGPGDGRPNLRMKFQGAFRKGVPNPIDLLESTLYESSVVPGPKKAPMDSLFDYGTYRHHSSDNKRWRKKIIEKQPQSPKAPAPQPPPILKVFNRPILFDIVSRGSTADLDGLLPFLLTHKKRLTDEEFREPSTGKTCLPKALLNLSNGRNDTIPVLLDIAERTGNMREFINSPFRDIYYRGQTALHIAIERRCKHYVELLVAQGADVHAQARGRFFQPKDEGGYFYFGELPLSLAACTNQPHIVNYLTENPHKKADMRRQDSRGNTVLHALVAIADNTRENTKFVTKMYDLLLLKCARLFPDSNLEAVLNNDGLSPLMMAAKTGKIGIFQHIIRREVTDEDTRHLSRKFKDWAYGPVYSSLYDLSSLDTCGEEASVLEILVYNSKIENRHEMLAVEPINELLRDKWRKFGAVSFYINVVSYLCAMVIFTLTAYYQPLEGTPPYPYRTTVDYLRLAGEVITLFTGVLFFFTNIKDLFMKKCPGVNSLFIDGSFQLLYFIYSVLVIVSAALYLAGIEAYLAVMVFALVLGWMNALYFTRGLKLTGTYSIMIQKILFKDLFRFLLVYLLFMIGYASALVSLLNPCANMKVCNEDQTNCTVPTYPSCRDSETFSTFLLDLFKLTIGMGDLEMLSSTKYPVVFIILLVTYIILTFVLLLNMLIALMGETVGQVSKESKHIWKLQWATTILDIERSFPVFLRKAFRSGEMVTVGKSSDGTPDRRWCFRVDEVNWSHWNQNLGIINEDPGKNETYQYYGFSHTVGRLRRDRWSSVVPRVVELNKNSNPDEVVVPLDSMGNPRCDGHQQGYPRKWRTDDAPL
Method: as §1

Compound: N.N.N.N.N.N.N.N.N.N.N.N.N.N.[Cl-].[Cl-].[Cl-].[Cl-].[Cl-].[Cl-].[O-2].[O-2].[Ru+3].[Ru+3].[Ru+4] [ruthenium red]
- block of the response to 4α-PDD in bovine articular chondrocytes [1]: blocked

Compound: CCCCCCCCCC(=O)O[C@@H]1[C@@H](C)[C@@]2(O)[C@@H](C=C(CO)C[C@@]3(O)C(=O)C(C)=C[C@@H]23)[C@@H]2C(C)(C)[C@]12OC(=O)CCCCCCCCC [4αPDD, 4α-phorbol-12,13-didecanoate]
- activity at VR1 (human VR1): inactive
- effect on intracellular calcium in wild type HEK293 cells (wild type HEK293 cells): without effect
- effect on intracellular calcium in cells transfected with empty vector [2]: without effect
- effect on intracellular calcium in HEK293-VR4 cells (human VR4): increased intracellular calcium
- selectivity VR4 over VR1 (human VR4; conclusion from pEC50 at hVR4 and hVR1): VR4 selective agonist
- pEC50 hVR4 (human VR4): 5.73 ± 0.06

Compound: C=C(C)[C@]12C[C@@H](C)[C@@]34O[C@](Cc5ccccc5)(O[C@@H]1[C@@H]3C=C(COC(=O)Cc1ccc(O)c(OC)c1)C[C@]1(O)C(=O)C(C)=C[C@@H]41)O2 [RTX]
- pEC50 hVR1 (human VR1): 8.93 ± 0.20

Compound: CCCCCCCCCCCCCC(=O)O[C@@H]1[C@@H](C)[C@@]2(O)[C@@H](C=C(CO)C[C@]3(O)C(=O)C(C)=C[C@@H]23)[C@@H]2C(C)(C)[C@]12OC(C)=O [PMA, phorbol 12-myristate 13-acetate]
- Emax at VR1 (human VR1; compared to capsaicin and RTX): 0.46
- pEC50 hVR1 (human VR1): 7.86 ± 0.06
- activity at VR1 (human VR1): partial agonist
- effect on intracellular calcium in wild type HEK293 cells (wild type HEK293 cells): without effect
- effect on intracellular calcium in cells transfected with empty vector [2]: without effect
- effect on intracellular calcium in HEK293-VR4 cells (human VR4): increased intracellular calcium
- pEC50 hVR4 (human VR4): 6.64 ± 0.06
